From US20110117026A1, “METHODS AND COMPOSITIONS FOR THE DELIVERY OF BIOACTIVE COMPOUNDS” (priority 2008, published 2011) come the findings set out here.

Non-standard residues stand in square brackets, D forms with d. Residues, ends and D or L forms follow the SMILES beside them. No end group written: not given here. pY = N[C@@H](Cc1ccc(OP(=O)(O)O)cc1)C(=O)O

Assay [1] concerns the target T1, STAT5b phosphorylation by EGFR (Homo sapiens, UniProt P51692).
T1 construct: In a cell-free system containing the lysate of H460 cells treated with EGF; endogenous in cells; host or cells: H460 cell lysate (cells treated with EGF)
T1 sequence (P51692 1-787): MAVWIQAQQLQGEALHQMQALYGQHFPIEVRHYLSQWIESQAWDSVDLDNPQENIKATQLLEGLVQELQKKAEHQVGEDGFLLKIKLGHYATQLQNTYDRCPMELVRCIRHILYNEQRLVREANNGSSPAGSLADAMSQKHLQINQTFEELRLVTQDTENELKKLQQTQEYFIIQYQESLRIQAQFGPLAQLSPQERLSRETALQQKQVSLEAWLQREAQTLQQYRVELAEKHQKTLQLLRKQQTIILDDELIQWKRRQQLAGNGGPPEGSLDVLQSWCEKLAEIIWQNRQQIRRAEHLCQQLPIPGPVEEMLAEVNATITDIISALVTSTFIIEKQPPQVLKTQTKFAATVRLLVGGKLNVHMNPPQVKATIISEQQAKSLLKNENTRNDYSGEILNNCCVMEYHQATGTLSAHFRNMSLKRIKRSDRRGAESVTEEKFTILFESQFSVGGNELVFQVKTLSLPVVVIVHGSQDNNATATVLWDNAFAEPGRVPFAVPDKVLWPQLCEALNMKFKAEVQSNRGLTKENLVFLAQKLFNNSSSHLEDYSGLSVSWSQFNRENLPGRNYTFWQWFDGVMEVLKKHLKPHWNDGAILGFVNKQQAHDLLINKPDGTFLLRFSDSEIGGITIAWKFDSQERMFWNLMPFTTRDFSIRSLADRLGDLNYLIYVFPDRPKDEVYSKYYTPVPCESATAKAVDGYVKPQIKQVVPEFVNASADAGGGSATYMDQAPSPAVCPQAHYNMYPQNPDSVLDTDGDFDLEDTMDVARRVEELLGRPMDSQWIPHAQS
As to the kind of experiment: Cell-free inhibition of STAT5b phosphorylation in H460 cell lysate (Western blot). Type of assay: biochemical. As to the method:
FIGS. 20A and 20B show the inhibition of STAT5b phosphorylation by the EV peptide (SEQ ID NO: 3) in a tumor cell lysate. Increasing amounts of EV peptide was added to the assay mixture containing H460 cell lysate. The degree of STAT5b phosphorylation was detected by Western blot (FIG. 20A) using a phosphorylated STAT5b specific monoclonal antibody. The data was analyzed by Image J software to obtain the IC50 (FIG. 20B).
Studies were initiated by selecting a highly anionic peptide that can block an important intracellular signaling event. The phosphorylation and activation of the signal transducer and activator of transcription 5b (STAT5b) by the epidermal growth factor receptor (EGFR) tyrosine kinase was chosen as the targeted signaling event. STAT proteins are cytoplasmic proteins that function as secondary messengers and transcription factors. The STAT proteins have a phosphotyrosine binding domain of src-homology 2 (SH2). The potential of the SH2 domain to interact with a number of signaling proteins allow the STATs to interfere with multiple cell signaling pathways (Mohamad and Mohammad (2006) JK-Practitioner 13(4):215-221). STAT activation has been implicated in human cancer cells, including the activation of upstream receptor tyrosine kinases, such as the EGFR, as well as nonreceptor kinases. […]
(In western blotting, separated proteins are transferred to a membrane and probed.)

In assay [2] the test system is H460 cells. Briefly: Apoptosis of H460 cells by flow cytometry (annexin V, propidium iodide). The assay is classed as cell-based, human. To be noted: 48 hours after treatment. Here is the method: Cells were stained with propidium iodide (PI) and Annexin V-FITC at 48 hours after treatment with a PEGylated LPH with AA or without AA.
(§1) The effect of the delivered EV peptide on the growth of H460 cells was then investigated.
On the technique in general: A flow cytometer gives signals particle by particle.

Assay [3] deals with H460 cells. Briefly: Inhibition of H460 cell growth. Type of assay: cell-based, human. To be noted: EV peptide 5 μM. As to the method:
H460 cells were treated with the EV peptide (5 μM) formulated in LPH-PEG-AA, LPH-PEG, or as a free peptide.
as §1

Assay [4] concerns H460 cells. As to the kind of experiment: Uptake of Alexa488 EV peptide by H460 cells. The following applies: Alexa488-labeled EV peptide, 4 h. Type of assay: cell-based, human. Here is the method: After treating H460 cells for four hours with an Alexa488 conjugated EV peptide formulated in LPH, PEG-LPH, or PEG-AA-LPH, cells were washed, treated with Triton X-100, and the fluorescence of the cell extract was determined with a fluorometer.
The uptake of the peptide by H460 cells was first studied in vitro. The EV peptide was fluorescently labeled with Alexa488 at the N-terminal α-NH2 group, purified by gel filtration, and formulated in the nanoparticles. […] Free EV peptide was not taken up by H460 cells at all.

A further assay concerns the target T2, recombinant caspase 3 (Homo sapiens, UniProt P42574).
T2 sequence (P42574 29-175 limits assumed): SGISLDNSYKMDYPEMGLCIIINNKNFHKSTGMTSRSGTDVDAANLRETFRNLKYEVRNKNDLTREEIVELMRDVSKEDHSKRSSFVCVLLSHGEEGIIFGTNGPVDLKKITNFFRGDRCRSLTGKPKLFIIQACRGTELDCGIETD
T2 sequence (P42574 176-277 limits assumed): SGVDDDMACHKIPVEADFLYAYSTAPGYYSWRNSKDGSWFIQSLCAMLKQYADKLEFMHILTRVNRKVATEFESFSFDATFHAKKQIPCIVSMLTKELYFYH
Briefly: Cleavage of imaging peptide by caspase 3 (Cy5.5/Cy7 FRET, nanofluorometer). The assay is classed as biochemical.

For a further assay, the target named is T3, STAT5b (Homo sapiens, UniProt P51692).
T3 construct: endogenous in cells; host or cells: H460 cells
T3 sequence (P51692 1-787): T1 sequence (P51692 1-787)
Briefly: STAT5b phosphorylation in intact H460 cells (ELISA). The assay is classed as cell-based. The following applies: 3.4 μM peptide, 24 h. As to the method:
FIG. 22 provides a graph depicting the inhibition of STAT5b phosphorylation by the EV peptide. At 24 hours after treating H460 cells with LPH, LPH-PEG or LPH-PEG-AA comprising the EV (SEQ ID NO: 3) or EE (SEQ ID NO: 4) peptide or the free peptide at 3.4 μM, the reduction of phosphorylated Stat5b was assayed with an ELISA.
Next, the pharmacodynamics of the EV peptide was studied in vitro.
For orientation: In an ELISA, binding on a coated surface is turned into a signal by an enzyme label.

Experimental for recombinant caspase 3: The fluorescence emission profiles of untreated peptide (FIG. 27A), peptide treated with 60 units of caspase-3 for 2 hours (FIG. 27B), peptide treated with 0.1 mg BSA (FIG. 27C), and peptide treated with 60 units caspase-3 that was pre-incubated with 10 μM caspase-3 inhibitor for one hour (FIG. 27D) were measured with a nanofluorometer.
The fluorescence spectrum of the peptide was recorded with a nanofluorometer which only requires a 2 μL sample volume.

As for `CC(C)C[C@H](NC(=O)[C@H](CCC(=O)O)NC(=O)[C@H](Cc1ccccc1)NC(=O)[C@H](Cc1ccc(OP(=O)(O)O)cc1)NC(=O)[C@H](CCC(=O)O)NC(=O)[C@H](CCC(=O)O)NC(=O)[C@H](CCC(=O)O)NC(=O)[C@@H](N)CCC(=O)O)C(=O)N[C@H](C(=O)O)C(C)C` [EV peptide, EEEE(pY)FELV] (H-EEEE[pY]FELV-OH; C-terminus assumed), the 50% inhibitory concentration (IC50) in assay [1] came to 2.5 µM. Besides, the “apoptosis, in words” value in the assay with H460 cells [2] was “without any effect”. The “effect on growth of H460 cells” value in the assay on H460 cells [3] was “no effect”. In addition, in the assay with H460 cells [4], the “uptake by H460 cells” value is reported as “not taken up”.
On to “Ac-KDEVDCDEVDKDEVDC (also: Cy5.5 on Cys, Cy7 on Lys) [imaging peptide, caspase 3 FRET reporter]”, for which the “ratio of Cy5.5/Cy7” value with recombinant caspase 3 (after incubation with recombinant caspase 3 (60 units, 2 hours)) was found to be 2.70; with recombinant caspase 3 (intact (untreated) peptide), 1.74.
In the case of “E(pY)ELFEEVE (E[pY]ELFEEVE) [EE peptide, reference compound]”, the “effect on STAT5b phosphorylation, in words” value with STAT5b is listed as “did not show any significant effect”.

In general, IC50 refers to the concentration needed to halve the response being measured. A higher IC50 goes with lower potency.
